Results taken from US12502434B2, “Compound comprising EZH2 inhibitor and E3 ligase binder and pharmaceutical composition for preventing or treating EZH2-associated disease comprising same as active ingredient” (DAEGU-GYEONGBUK MEDICAL INNOVATION FOUNDATION, priority 2019, dated 2025).
Where two headings read alike, the source gives them in different places.

Columns and labels:
[1] = target: T1, HiBiT-EZH2 in EZH2-HiBiT HEK293T cells (Homo sapiens, UniProt Q15910); test: EZH2 proteolytic activity using Nano-BiT assay system; format: cell-based; conditions: for Relative EZH2 degradation rate, 1 μM(%) Average: 72 hours, n = 3; for EZH2 proteolytic ability compared to comparative compounds 1, 2 and 3 (in words): 1 μM
T1 construct: endogenous in cells; host or cells: HEK293T (CRISPR/Cas9 HiBiT knock-in at the EZH2 locus)
T1 sequence (Q15910 whole entry): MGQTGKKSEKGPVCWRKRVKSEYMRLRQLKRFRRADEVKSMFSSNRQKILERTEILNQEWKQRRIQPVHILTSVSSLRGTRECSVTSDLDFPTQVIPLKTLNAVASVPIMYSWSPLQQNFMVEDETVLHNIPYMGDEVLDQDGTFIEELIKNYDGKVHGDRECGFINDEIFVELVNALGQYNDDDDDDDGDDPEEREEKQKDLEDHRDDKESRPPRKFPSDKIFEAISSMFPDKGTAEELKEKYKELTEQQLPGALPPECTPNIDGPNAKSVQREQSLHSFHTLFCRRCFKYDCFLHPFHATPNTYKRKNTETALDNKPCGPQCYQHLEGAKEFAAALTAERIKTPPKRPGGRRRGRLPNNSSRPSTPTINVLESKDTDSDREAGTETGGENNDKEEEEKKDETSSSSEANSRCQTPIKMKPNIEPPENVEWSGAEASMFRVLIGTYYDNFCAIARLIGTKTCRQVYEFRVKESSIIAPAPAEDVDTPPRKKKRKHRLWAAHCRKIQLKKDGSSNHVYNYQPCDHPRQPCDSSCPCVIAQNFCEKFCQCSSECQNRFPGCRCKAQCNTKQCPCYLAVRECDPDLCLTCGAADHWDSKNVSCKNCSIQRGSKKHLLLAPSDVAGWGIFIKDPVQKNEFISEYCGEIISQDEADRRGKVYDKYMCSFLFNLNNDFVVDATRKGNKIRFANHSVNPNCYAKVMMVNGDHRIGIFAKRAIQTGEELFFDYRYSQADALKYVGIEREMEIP
T1 sequence (O75530 whole entry partner): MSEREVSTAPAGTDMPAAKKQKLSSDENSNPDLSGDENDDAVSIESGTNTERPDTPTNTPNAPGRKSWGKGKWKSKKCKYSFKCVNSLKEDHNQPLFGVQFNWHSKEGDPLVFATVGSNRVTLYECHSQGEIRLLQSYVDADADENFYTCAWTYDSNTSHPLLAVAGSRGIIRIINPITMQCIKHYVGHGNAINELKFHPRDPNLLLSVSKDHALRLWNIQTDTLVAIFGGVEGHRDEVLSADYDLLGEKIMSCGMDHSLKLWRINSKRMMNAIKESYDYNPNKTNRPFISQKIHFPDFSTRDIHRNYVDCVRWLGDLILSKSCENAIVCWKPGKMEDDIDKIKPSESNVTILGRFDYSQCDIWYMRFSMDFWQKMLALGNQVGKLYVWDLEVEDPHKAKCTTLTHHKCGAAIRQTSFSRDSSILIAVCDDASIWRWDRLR
T1 sequence (Q15022 whole entry partner): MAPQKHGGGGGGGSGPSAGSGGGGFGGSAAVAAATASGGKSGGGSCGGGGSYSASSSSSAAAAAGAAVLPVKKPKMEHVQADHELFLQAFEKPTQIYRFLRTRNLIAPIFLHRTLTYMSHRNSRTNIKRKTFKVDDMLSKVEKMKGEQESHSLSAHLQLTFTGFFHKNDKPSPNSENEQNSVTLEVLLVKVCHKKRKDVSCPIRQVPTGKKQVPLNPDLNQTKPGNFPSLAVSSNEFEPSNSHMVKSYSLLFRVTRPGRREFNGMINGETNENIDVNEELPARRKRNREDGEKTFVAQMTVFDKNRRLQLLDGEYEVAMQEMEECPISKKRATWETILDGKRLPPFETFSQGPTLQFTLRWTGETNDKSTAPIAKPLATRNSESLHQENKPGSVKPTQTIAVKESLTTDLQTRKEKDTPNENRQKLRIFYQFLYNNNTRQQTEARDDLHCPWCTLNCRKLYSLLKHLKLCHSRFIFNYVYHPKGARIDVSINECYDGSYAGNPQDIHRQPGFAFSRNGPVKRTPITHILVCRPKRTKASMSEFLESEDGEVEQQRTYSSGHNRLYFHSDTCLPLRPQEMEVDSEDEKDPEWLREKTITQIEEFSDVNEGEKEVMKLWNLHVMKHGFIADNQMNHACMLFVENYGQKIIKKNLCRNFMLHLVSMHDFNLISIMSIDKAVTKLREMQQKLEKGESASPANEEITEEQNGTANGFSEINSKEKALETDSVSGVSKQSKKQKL
Protocol: In order to evaluate the EZH2 proteolytic activity of the compound according to the present invention, the following experiment was performed. Specifically, the CRISPR/Cas9 technique was used to construct a stable cell line of HiBiT-EZH2. […] After harvesting the cells, the cell solution was prepared at a concentration of 1 cell/100 ul, and 100 ul of the cell solution was dispensed into each well of a 96-well plate and seeded so that a single cell could proliferate in each well. After proliferating the cells for 2-3 weeks, some of the proliferated cells from one cell were recovered and gDNA was extracted. To confirm that the HiBiT sequence was correctly inserted into the EZH2 target, deep sequencing was performed to select the cells containing the HiBiT sequence, and after further verification through Sanger sequencing, the final EZH2-HiBiT HEK293T cells were obtained. 1×10^3 of the obtained cells were placed in a 96-well white plate, and after 18 hours of stabilization, each well was treated with the example compound at a final concentration of 1 μM. The control group was treated with the same concentration of DMSO which was used as the solvent of the example compound. After 72 hours of the treatment, an assay was performed using Nano-Glo HiBiT Lytic Detection System ([…], Promega). After removing the medium, 100 μL of lysis buffer, 1 μL of LgBiT protein and 1 μL of substrate buffer were added to each well. Then, the plate was reacted in a shaking incubator at 700 rpm for 2 minutes, and then the mixture of each well was pipetted to mix well. Thereafter, the plate was reacted at room temperature for 10 minutes while light was blocked, and luminescence was measured.

[2] = target: T2, EZH2 protein in LS174T cells (Homo sapiens, UniProt Q15910); test: Proteolytic effect in colorectal cancer cells (Western blotting); format: cell-based
T2 construct: endogenous in cells; host or cells: LS174T
T2 sequence (Q15910 whole entry): as the sequence (Q15910 whole entry) above
T2 sequence (O75530 whole entry partner): as the sequence (O75530 whole entry partner) above
T2 sequence (Q15022 whole entry partner): as the sequence (Q15022 whole entry partner) above
Protocol: After 72 hours of the treatment, the cells were collected and lysed using RIPA buffer (50 mM Tris, pH 7.5, 150 mM NaCl, 1% Triton X-100, 0.1% SDS, […], 0.5% deoxycholate, and protease inhibitor cocktail), followed by sonication (30 sec on/30 sec off, 5 cycles) to prepare a cell lysate.

[3] = EZH2 protein, LS174T cells, 1 μM, 72 hours
[4] = EZH2 protein, LS174T cells, 1 uM, 72 hours, Western blotting

Row | SMILES | Relative EZH2 degradation rate, 1 μM(%) Average [1] [%] | EZH2 proteolytic ability compared to comparative compounds 1, 2 and 3 (in words) [1] | Grade (percent value of the protein degradation when treated with 1 μM) [2, 3] | %, degradation at 1 uM [2, 4] [%] | EZH2 proteolytic effect by Western blotting (figure, in words) ([2]; FIGS. 1 to 5) | effect of degrading EZH2 protein when treated to colorectal cancer cells (in words) ([2]; LS174T cells) | %, degradation at 1 uM [2] [%] | EZH2 proteolytic effect by Western blotting (figure, in words) [2] | Grade (percent value of the protein degradation when treated with 1 μM) [2]
1 | CCN(c1cc(-c2ccc(N3CCN(CC(=O)NCCCCCCNc4cccc5c4C(=O)N(C4CCC(=O)NC4=O)C5=O)CC3)cc2)cc(C(=O)NCc2c(C)cc(C)[nH]c2=O)c1C)C1CCOCC1 (stereo not shown) [compound 2, reference compound] | 16.2 | – | – | – | – | – | – | – | –
2 | CCN(c1cc(-c2ccc(CN3CCN(CC(=O)NCCCCCCCCCOCC(=O)N[C@H](C(=O)N4C[C@H](O)C[C@H]4C(=O)NCc4ccc(-c5scnc5C)cc4)C(C)(C)C)CC3)cc2)cc(C(=O)NCc2c(C)cc(C)[nH]c2=O)c1C)C1CCOCC1 [Example 49, (2S,4R)-1-((S)-2-(2-((9-(2-(4-((3′-(((4,6-dimethyl-2-oxo-1,2-dihydropyridine-3-yl)methyl)carbamoyl)-5′-(ethyl(tetrahydro-2H-pyran-4-yl)amino)-4′-methyl-[1,1′-biphenyl]-4-yl)methyl)piperazine-1-yl)acetamido)nonyl)oxy)acetamido)-3,3-dimethylbutanoyl)-4-hydroxy-N-(4-(4-methylthiazole-5-yl)benzyl)pyrrolidine-2-carboxamide] | 77.8 | significantly better EZH2 proteolytic ability | A (>75%) | 96.49 | confirming the EZH2 proteolytic effect | excellent effects | – | – | –
3 | CCN(c1cc(-c2ccc(CN3CCN(CC(=O)NCCCCCCOCC(=O)N[C@H](C(=O)N4C[C@H](O)C[C@H]4C(=O)NCc4ccc(-c5scnc5C)cc4)C(C)(C)C)CC3)cc2)cc(C(=O)NCc2c(C)cc(C)[nH]c2=O)c1C)C1CCOCC1 [Example 46, (2S,4R)-1-((S)-2-(2-((6-(2-(4-((3′-(((4,6-dimethyl-2-oxo-1,2-dihydropyridine-3-yl)methyl)carbamoyl)-5′-(ethyl(tetrahydro-2H-pyran-4-yl)amino)-4′-methyl-[1,1′-biphenyl]-4-yl)methyl)piperazine-1-yl)acetamido)hexyl)oxy)acetamido)-3,3-dimethylbutanoyl)-4-hydroxy-N-(4-(4-methylthiazole-5-yl)benzyl)pyrrolidine-2-carboxamide] | 65.8 | significantly better EZH2 proteolytic ability | – | – | – | – | 83.76 | confirming the EZH2 proteolytic effect | A (key: A: >75%; B: 50-75%; C: 25-50%; D: <25%)
4 | CCN(c1cc(-c2ccc(CN3CCN(CCNC(=O)CCOCCNc4cccc5c4C(=O)N(C4CCC(=O)NC4=O)C5=O)CC3)cc2)cc(C(=O)NCc2c(C)cc(C)[nH]c2=O)c1C)C1CCOCC1 (stereo not shown) [compound 3, reference compound] | 19.2 | – | – | – | – | – | – | – | –
5 | CCN(c1cc(-c2ccc(OCC(=O)NCCCCCCNc3cccc4c3C(=O)N(C3CCC(=O)NC3=O)C4=O)cc2)cc(C(=O)NCc2c(C)cc(C)[nH]c2=O)c1C)C1CCOCC1 (stereo not shown) [compound 1, reference compound] | 27.8 | – | – | – | – | – | – | – | –
6 | CCN(c1cc(-c2ccc(CN3CCN(CC(=O)NCCCCCOCCCOCC(=O)N[C@H](C(=O)N4C[C@H](O)C[C@H]4C(=O)NCc4ccc(-c5scnc5C)cc4)C(C)(C)C)CC3)cc2)cc(C(=O)NCc2c(C)cc(C)[nH]c2=O)c1C)C1CCOCC1 [Example 37, (2S,4R)-1-((S)-2-(tert-butyl)-18-(4-((3′-(((4,6-dimethyl-2-oxo-1,2-dihydropyridine-3-yl)methyl)carbamoyl)-5′-(ethyl(tetrahydro-2H-pyran-4-yl)amino)-4′-methyl-[1,1′-biphenyl]-4-yl)methyl)piperazine-1-yl)-4,17-dioxo-6,10-dioxa-3,16-diazaoctadecanoyl)-4-hydroxy-N-(4-(4-methylthiazole-5-yl)benzyl)pyrrolidine-2-carboxamide] | 62.9 | significantly better EZH2 proteolytic ability | A (>75%) | 92.73 | – | excellent effects | – | – | –
7 | CCN(c1cc(-c2ccc(CN3CCN(CC(=O)N4CCC5(CCN(CCNc6cccc7c6C(=O)N(C6CCC(=O)NC6=O)C7=O)CC5)CC4)CC3)cc2)cc(C(=O)NCc2c(C)cc(C)[nH]c2=O)c1C)C1CCOCC1 (stereo not shown) [Example 30, N-((4,6-dimethyl-2-oxo-1,2-dihydropyridine-3-yl)methyl)-4′-((4-(2-(9-(2-((2-(2,6-dioxopiperidine-3-yl)-1,3-dioxoisoindoline-4-yl)amino)ethyl)-3,9-diazaspiro[5.5]undecane-3-yl)-2-oxoethyl)piperazine-1-yl)methyl)-5-(ethyl(tetrahydro-2H-pyran-4-yl)amino)-4-methyl-[1,1′-biphenyl]-3-carboxamide] | 50.7 | significantly better EZH2 proteolytic ability | A (>75%) | 95.65 | confirming the EZH2 proteolytic effect | excellent effects | – | – | –
